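Growth conditions: 96-well plates. Treatment: test compound, 48 hours, 5 concentrations. Analysis: linear interpolation between bracketing concentrations; unreached endpoints set to highest concentration. GI50: concentration for 50% inhibition of growth.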 Active and inactive are the calls of the source. Cut-off read from the data, not from the text of the source: active = GI50 up to about 1.1 µM and inactive = higher.
What was measured:
Assay in all cases: NCI-60 cell line screen, 48 h
SW-620 = test system: SW-620
HCT-116 = test system: HCT-116
Hs-578T = test system: Hs-578T
NCI-H23 = test system: NCI-H23
OVCAR-5 = test system: OVCAR-5
NCI-H522 = test system: NCI-H522
PC-3 = test system: PC-3
NCI-H460 = test system: NCI-H460
CCRF-CEM = test system: CCRF-CEM
UACC-257 = test system: UACC-257
HCT-15 = test system: HCT-15
Malme-3M = test system: Malme-3M
TK-10 = test system: TK-10
OVCAR-4 = test system: OVCAR-4
OVCAR-3 = test system: OVCAR-3
EKVX = test system: EKVX
SF-295 = test system: SF-295
NCI-H226 = test system: NCI-H226
COLO 205 = test system: COLO 205
OVCAR-8 = test system: OVCAR-8
BT-549 = test system: BT-549
A549 = test system: A549
MDA-N = test system: MDA-N
SK-MEL-5 = test system: SK-MEL-5
M14 = test system: M14
NCI/ADR-RES = test system: NCI/ADR-RES
HOP-92 = test system: HOP-92
RPMI-8226 = test system: RPMI-8226
SF-268 = test system: SF-268
MDA-MB-231 = test system: MDA-MB-231
SNB-75 = test system: SNB-75
HOP-62 = test system: HOP-62
SK-OV-3 = test system: SK-OV-3
786-0 = test system: 786-0
SN12C = test system: SN12C
HL-60 = test system: HL-60
U-251 = test system: U-251
KM12 = test system: KM12
LOX IMVI = test system: LOX IMVI
UACC-62 = test system: UACC-62
A498 = test system: A498
CAKI-1 = test system: CAKI-1
MOLT-4 = test system: MOLT-4
DU-145 = test system: DU-145
SK-MEL-2 = test system: SK-MEL-2
K562 = test system: K562
ACHN = test system: ACHN
SK-MEL-28 = test system: SK-MEL-28
RXF 393 = test system: RXF 393
SNB-19 = test system: SNB-19
MDA-MB-435 = test system: MDA-MB-435
MCF7 = test system: MCF7
IGROV-1 = test system: IGROV-1
HCC 2998 = test system: HCC 2998
HT-29 = test system: HT-29
UO-31 = test system: UO-31
T47D = test system: T47D
SF-539 = test system: SF-539

Structure (SMILES): CN(C)Cc1cc(O)c(O)c(CN(C)C)c1
- GI50 (SW-620): 64.3 µM (inactive)
- GI50 (HCT-116): 41.3 µM (inactive)
- GI50 (Hs-578T): > 100 µM (inactive)
- GI50 (NCI-H23): 37 µM (inactive)
- GI50 (OVCAR-5): 32.4 µM (inactive)
- GI50 (NCI-H522): 30.3 µM (inactive)
- GI50 (PC-3): 48.8 µM (inactive)
- GI50 (NCI-H460): 21.4 µM (inactive)
- GI50 (CCRF-CEM): 20.2 µM (inactive)
- GI50 (UACC-257): 17.3 µM (inactive)
- GI50 (HCT-15): 24.2 µM
- GI50 (Malme-3M): 31.3 µM (inactive)
- GI50 (TK-10): 37.5 µM (inactive)
- GI50 (OVCAR-4): 42.5 µM (inactive)
- GI50 (OVCAR-3): 36.7 µM (inactive)
- GI50 (EKVX): 16.4 µM (inactive)
- GI50 (SF-295): 47 µM (inactive)
- GI50 (NCI-H226): 43.3 µM (inactive)
- GI50 (COLO 205): 34.7 µM (inactive)
- GI50 (OVCAR-8): 35.2 µM (inactive)
- GI50 (BT-549): 54 µM (inactive)
- GI50 (A549): 46.6 µM (inactive)
- GI50 (MDA-N): 57.8 µM (inactive)
- GI50 (SK-MEL-5): 29.4 µM (inactive)
- GI50 (M14): 22.7 µM (inactive)
- GI50 (NCI/ADR-RES): 19.3 µM (inactive)
- GI50 (HOP-92): > 100 µM (inactive)
- GI50 (RPMI-8226): 35.7 µM (inactive)
- GI50 (SF-268): 35.4 µM (inactive)
- GI50 (MDA-MB-231): > 100 µM (inactive)
- GI50 (SNB-75): 56.6 µM (inactive)
- GI50 (HOP-62): 37.2 µM (inactive)
- GI50 (SK-OV-3): 54.1 µM (inactive)
- GI50 (786-0): 31.4 µM (inactive)
- GI50 (SN12C): 36.9 µM (inactive)
- GI50 (HL-60): 24.8 µM (inactive)
- GI50 (U-251): 36.6 µM (inactive)
- GI50 (KM12): 94.2 µM (inactive)
- GI50 (LOX IMVI): 36 µM (inactive)
- GI50 (UACC-62): 29.5 µM (inactive)
- GI50 (A498): > 100 µM (inactive)
- GI50 (CAKI-1): 34.4 µM (inactive)
- GI50 (MOLT-4): 27.9 µM (inactive)
- GI50 (DU-145): 35.9 µM (inactive)
- GI50 (SK-MEL-2): 37.2 µM (inactive)
- GI50 (K562): 33 µM (inactive)
- GI50 (ACHN): 34.5 µM (inactive)
- GI50 (SK-MEL-28): 51.9 µM (inactive)
- GI50 (RXF 393): 50.4 µM (inactive)
- GI50 (SNB-19): 50.9 µM (inactive)
- GI50 (MDA-MB-435): > 100 µM (inactive)
- GI50 (MCF7): 39.6 µM (inactive)
- GI50 (IGROV-1): 46.3 µM (inactive)
- GI50 (HCC 2998): 29 µM (inactive)
- GI50 (HT-29): 40.2 µM (inactive)
- GI50 (UO-31): 25.9 µM (inactive)
- GI50 (T47D): 49.9 µM (inactive)

Structure (SMILES): CCOC(=O)C1=CC(C)(C(=O)OCC)Nc2c(nc(OC)n(C)c2=O)N1 (stereo not drawn)
- GI50 (SW-620): > 10 µM (inactive)
- GI50 (HCT-116): > 10 µM (inactive)
- GI50 (Hs-578T): > 10 µM (inactive)
- GI50 (SF-539): > 10 µM (inactive)
- GI50 (NCI-H23): > 10 µM (inactive)
- GI50 (OVCAR-5): > 10 µM (inactive)
- GI50 (NCI-H522): > 10 µM (inactive)
- GI50 (PC-3): > 10 µM (inactive)
- GI50 (NCI-H460): > 10 µM (inactive)
- GI50 (CCRF-CEM): > 10 µM (inactive)
- GI50 (UACC-257): > 10 µM (inactive)
- GI50 (HCT-15): > 10 µM
- GI50 (Malme-3M): > 10 µM (inactive)
- GI50 (TK-10): > 10 µM (inactive)
- GI50 (OVCAR-4): > 10 µM (inactive)
- GI50 (OVCAR-3): > 10 µM (inactive)
- GI50 (EKVX): > 10 µM (inactive)
- GI50 (SF-295): > 10 µM (inactive)
- GI50 (NCI-H226): > 10 µM (inactive)
- GI50 (COLO 205): > 10 µM (inactive)
- GI50 (OVCAR-8): > 10 µM (inactive)
- GI50 (BT-549): > 10 µM (inactive)
- GI50 (A549): > 10 µM (inactive)
- GI50 (MDA-N): > 10 µM (inactive)
- GI50 (SK-MEL-5): > 10 µM (inactive)
- GI50 (M14): > 10 µM (inactive)
- GI50 (NCI/ADR-RES): > 10 µM (inactive)
- GI50 (HOP-92): > 10 µM (inactive)
- GI50 (RPMI-8226): > 10 µM (inactive)
- GI50 (SF-268): > 10 µM (inactive)
- GI50 (MDA-MB-231): > 10 µM (inactive)
- GI50 (SNB-75): > 10 µM (inactive)
- GI50 (HOP-62): > 10 µM (inactive)
- GI50 (SK-OV-3): > 10 µM (inactive)
- GI50 (786-0): > 10 µM (inactive)
- GI50 (SN12C): > 10 µM (inactive)
- GI50 (U-251): > 10 µM (inactive)
- GI50 (KM12): > 10 µM (inactive)
- GI50 (LOX IMVI): > 10 µM (inactive)
- GI50 (A498): > 10 µM (inactive)
- GI50 (CAKI-1): > 10 µM (inactive)
- GI50 (MOLT-4): > 10 µM (inactive)
- GI50 (DU-145): > 10 µM (inactive)
- GI50 (SK-MEL-2): > 10 µM (inactive)
- GI50 (K562): > 10 µM (inactive)
- GI50 (ACHN): > 10 µM (inactive)
- GI50 (SK-MEL-28): > 10 µM (inactive)
- GI50 (RXF 393): > 10 µM (inactive)
- GI50 (SNB-19): > 10 µM (inactive)
- GI50 (MDA-MB-435): > 10 µM (inactive)
- GI50 (MCF7): > 10 µM (inactive)
- GI50 (IGROV-1): > 10 µM (inactive)
- GI50 (HCC 2998): > 10 µM (inactive)
- GI50 (HT-29): > 10 µM (inactive)
- GI50 (UO-31): > 10 µM (inactive)
- GI50 (T47D): > 10 µM (inactive)
